# Tested on: not listed separately
# Experiment: logP by HPLC (EEC Directive 79/831 Annex V. A8, gradient method)
# Type: physicochemical
# Conditions: acetonitrile/0.1% aqueous phosphoric acid
# Protocol: In Table 1, Me represents methyl. The logP values were determined in accordance with EEC Directive 79/831 Annex V. A8 by HPLC (gradient method, acetonitrile/0.1% aqueous phosphoric acid).
row,Structure (SMILES),chromatographic logP
1,CCN(CC)S(=O)(=O)n1c(Oc2ccc(Oc3ccccc3)cc2)noc1=O [Example 54],4.19
2,Cc1ccc(S(=O)(=O)n2c(Oc3ccc(C)cc3C)noc2=O)cc1 [Example 9],3.89
3,CN(C)S(=O)(=O)n1c(Oc2ccc3c(c2)CCC3)noc1=O [Example 57],3.3
4,COc1ccc(Oc2noc(=O)n2S(=O)(=O)N(C)C)cc1 [Example 13],2.5
5,CCN(CC)S(=O)(=O)n1c(Oc2c(C)cccc2C)noc1=O [Example 42],3.64
6,Cc1ccc(S(=O)(=O)n2c(Oc3cc(C)ccc3C)noc2=O)cc1 [Example 4],3.93
7,CN(C)S(=O)(=O)n1c(Oc2cccc(C(F)(F)F)c2)noc1=O [Example 21],3.13
8,CCN(CC)S(=O)(=O)n1c(Oc2cc(C)cc(C)c2)noc1=O [Example 33],3.75
9,CCN(CC)S(=O)(=O)n1c(Oc2cccc(C(=O)OC)c2)noc1=O [Example 37],3.09
10,COc1cccc(OC)c1Oc1noc(=O)n1S(=O)(=O)N(C)C [Example 65],2.51
11,Cc1ccc(S(=O)(=O)n2c(Oc3ccc(F)cc3)noc2=O)cc1 [Example 6],3.39
12,CN(C)S(=O)(=O)n1c(Oc2ccccc2-c2ccccc2)noc1=O [Example 61],3.37
13,CCN(CC)S(=O)(=O)n1c(Oc2ccccc2C)noc1=O [Example 29],3.33
14,CCN(CC)S(=O)(=O)n1c(Oc2cccc(C)c2)noc1=O [Example 43],3.42
15,CCN(CC)S(=O)(=O)n1c(Oc2ccc(OC(F)(F)F)cc2)noc1=O [Example 62],3.82
16,Cc1cc(C)cc(Oc2noc(=O)n2S(=O)(=O)N(C)C)c1 [Example 32],3.18
17,CCN(CC)S(=O)(=O)n1c(Oc2ccc(C)cc2C)noc1=O [Example 31],3.72
18,Cc1cccc(Oc2noc(=O)n2S(=O)(=O)N(C)C)c1 [Example 20],2.83
19,CCN(CC)S(=O)(=O)n1c(Oc2cccc(OC)c2OC)noc1=O [Example 49],3.15
20,Cc1ccc(Oc2noc(=O)n2S(C)(=O)=O)c(C)c1 [Example 10],2.73
21,Cc1cccc(Oc2noc(=O)n2S(=O)(=O)N(C)C)c1C [Example 30],3.04
22,CN(C)S(=O)(=O)n1c(Oc2ccc(Cl)cc2Cl)noc1=O [Example 51],3.29
23,CN(C)S(=O)(=O)n1c(Oc2ccc(OC(F)(F)F)cc2)noc1=O [Example 52],3.3
24,CCS(=O)(=O)n1c(Oc2ccc(C)cc2C)noc1=O [Example 14],2.95
25,CN(C)S(=O)(=O)n1c(Oc2ccccc2F)noc1=O [Example 47],2.55
26,CCN(CC)S(=O)(=O)n1c(Oc2ccccc2OC)noc1=O [Example 46],3.05
27,Cc1ccc(Oc2noc(=O)n2S(=O)(=O)N(C)C)cc1C [Example 16],3.15

row,Structure (SMILES),chromatographic logP
1,CN(C)S(=O)(=O)n1c(Oc2ccc(-c3ccccc3)cc2)noc1=O [Example 60],3.56
2,CN(C)S(=O)(=O)n1c(Oc2ccc(Cl)c(Cl)c2)noc1=O [Example 22],3.37
3,CCN(CC)S(=O)(=O)n1c(Oc2cccc(C(F)(F)F)c2)noc1=O [Example 48],3.68
4,CN(C)S(=O)(=O)n1c(Oc2ccc(Cl)cc2)noc1=O [Example 15],2.94
5,CCN(CC)S(=O)(=O)n1c(Oc2ccc(OC)cc2)noc1=O [Example 44],3.1
6,CCN(CC)S(=O)(=O)n1c(Oc2ccc(C)cc2)noc1=O [Example 45],3.42
7,CCN(CC)S(=O)(=O)n1c(Oc2ccc3c(c2)CCC3)noc1=O [Example 58],3.88
8,CCN(CC)S(=O)(=O)n1c(Oc2cccc(C)c2C)noc1=O [Example 36],3.64
9,CCN(CC)S(=O)(=O)n1c(Oc2ccccc2)noc1=O [Example 39],3.06
10,CCN(CC)S(=O)(=O)n1c(Oc2ccc(Cl)cc2Cl)noc1=O [Example 63],3.88
11,CCN(C)S(=O)(=O)n1c(Oc2cc(C)ccc2C)noc1=O [Example 64],3.42
12,CCN(C)S(=O)(=O)n1c(Oc2ccc(Oc3ccccc3)cc2)noc1=O [Example 59],3.83
13,CCN(CC)S(=O)(=O)n1c(Oc2cccc(Cl)c2)noc1=O [Example 56],3.53
14,CCN(CC)S(=O)(=O)n1c(Oc2cc(C)ccc2C)noc1=O [Example 35],3.7
15,CCN(CC)S(=O)(=O)n1c(Oc2ccc(F)cc2)noc1=O [Example 50],3.16
16,CCN(CC)S(=O)(=O)n1c(Oc2cccc(OC)c2)noc1=O [Example 28],3.14
17,CN(C)S(=O)(=O)n1c(Oc2ccc(Oc3ccccc3)cc2)noc1=O [Example 53],3.58
18,CN(C)S(=O)(=O)n1c(Oc2ccccc2)noc1=O [Example 18],2.48
19,CCN(CC)S(=O)(=O)n1c(Oc2ccc(Cl)cc2)noc1=O [Example 38],3.53
20,COc1cccc(Oc2noc(=O)n2S(=O)(=O)N(C)C)c1OC [Example 40],2.58
21,COc1ccccc1Oc1noc(=O)n1S(=O)(=O)N(C)C [Example 23],2.49
22,Cc1ccc(C)c(Oc2noc(=O)n2S(C)(=O)=O)c1 [Example 8],2.7
23,CN(C)S(=O)(=O)n1c(Oc2cccc(Cl)c2)noc1=O [Example 55],2.95
24,COc1ccc(Oc2noc(=O)n2S(=O)(=O)c2ccc(C)cc2)cc1 [Example 3],3.34
25,COC(=O)c1cccc(Oc2noc(=O)n2S(=O)(=O)N(C)C)c1 [Example 34],2.54
26,Cc1ccc(Oc2noc(=O)n2S(=O)(=O)N(C)C)c(C)c1 [Example 12],3.13
27,CN(C)S(=O)(=O)n1c(Oc2ccc(F)cc2)noc1=O [Example 19],2.58

# Tested on: Phytophthora infestans
# Experiment: whole plant or invertebrate
# Type: in vivo
# Conditions: in Solanum lycopersicum, 72 h, read-out: Efficacy
row,Structure (SMILES),pest or weed control at 100 g/ha
1,COc1ccc(Oc2noc(=O)n2S(=O)(=O)N(C)C)cc1 [Example 13],92%
2,Cc1ccc(Oc2noc(=O)n2S(C)(=O)=O)c(C)c1 [Example 10],92%
3,CCS(=O)(=O)n1c(Oc2ccc(C)cc2C)noc1=O [Example 14],97%
4,Cc1ccc(Oc2noc(=O)n2S(=O)(=O)N(C)C)cc1C [Example 16],99%
5,"Cc1ccc(C)c(Oc2noc(=O)n2S(=O)(=O)N(C)C)c1 [Example 1, N,N-dimethyl-3-(2,5-dimethylphenoxy)-5-oxo-[1,2,4]oxadiazole-4-sulphonamide]",99%
6,"CCS(=O)(=O)n1c(Oc2cc(C)ccc2C)noc1=O [Example 2, 3-(2,5-dimethylphenoxy)-4-ethanesulphonyl-4H-[1,2,4]oxadiazol-5-one]",95%
7,CN(C)S(=O)(=O)n1c(Oc2ccccc2)noc1=O [Example 18],95%
8,CN(C)S(=O)(=O)n1c(Oc2ccc(Br)cc2)noc1=O [Example 17],94%
9,Cc1ccc(Oc2noc(=O)n2S(=O)(=O)N(C)C)c(C)c1 [Example 12],97%

# Source: patent publication US6100281A, “Sulphonyloxadiazolones” (Bayer Aktiengesellschaft, priority 1997, dated 2000)
